pIC50: −log10 of the molar value. Active and inactive are the calls of the source. The calls are words filed in the database; no cut-off is given here.
Assays:
MCF7 [1] = test: Antagonistic cytotoxicity against human MCF7 cells measured after 2 days in presence of 5 uM 2(((24(2,4-dichlorobenzyl)oxy)naphthalen-1-yl)methyl)amino)ethan-1-ol by SRB assay; assay type: functional, cell-based; conditions: MCF7, 48 h
MCF7 [2] = test: Antagonistic cytotoxicity against human MCF7 cells measured after 2 days in presence of 5 uM KU55933 by SRB assay; assay type: functional, cell-based; conditions: MCF7, 48 h
MCF7 [3] = test: Antagonistic cytotoxicity against human MCF7 cells measured after 2 days in presence of 5 uM KU60019 by SRB assay; assay type: functional, cell-based; conditions: MCF7, 48 h
MCF7 [4] = test: Antagonistic cytotoxicity against human MCF7 cells measured after 2 days in presence of 50 nM AZD0156 by SRB assay; assay type: functional, cell-based; conditions: MCF7, 48 h
MCF7 [5] = test: Antagonistic cytotoxicity against human MCF7 cells assessed as combination index measured after 2 days in presence of 5 uM 2(((24(2,4-dichlorobenzyl)oxy)naphthalen-1-yl)methyl)amino)ethan-1-ol by SRB assay; assay type: functional; conditions: time 2 day
MCF7 [6] = test: Antagonistic cytotoxicity against human MCF7 cells assessed as combination index measured after 2 days in presence of 5 uM KU55933 by SRB assay; assay type: functional; conditions: time 2 day
MCF7 [7] = test: Antagonistic cytotoxicity against human MCF7 cells assessed as combination index measured after 2 days in presence of 5 uM KU60019 by SRB assay; assay type: functional; conditions: time 2 day
SW480 [8] = test: Antagonistic cytotoxicity against human SW480 cells measured after 3 days in presence of 5 uM KU55933 by SRB assay; assay type: functional, cell-based; conditions: SW480, 72 h
SW480 [9] = test: Antagonistic cytotoxicity against human SW480 cells measured after 3 days in presence of 5 uM KU60019 by SRB assay; assay type: functional, cell-based; conditions: SW480, 72 h
SW480 [10] = test: Antagonistic cytotoxicity against human SW480 cells assessed as combination index measured after 3 days in presence of 5 uM 2(((24(2,4-dichlorobenzyl)oxy)naphthalen-1-yl)methyl)amino)ethan-1-ol by SRB assay; assay type: functional; conditions: time 3 day
SW480 [11] = test: Antagonistic cytotoxicity against human SW480 cells assessed as combination index measured after 3 days in presence of 5 uM KU55933 by SRB assay; assay type: functional; conditions: time 3 day
SW480 [12] = test: Antagonistic cytotoxicity against human SW480 cells assessed as combination index measured after 3 days in presence of 5 uM KU60019 by SRB assay; assay type: functional; conditions: time 3 day
MCF7 [13] = test: Cytotoxicity against human MCF7 cells measured after 6 days in presence of 5 uM 2(((24(2,4-dichlorobenzyl)oxy)naphthalen-1-yl)methyl)amino)ethan-1-ol by SRB assay; assay type: functional, cell-based; conditions: MCF7, 144 h
MCF7 [14] = test: Synergistic cytotoxicity against human MCF7 cells measured after 6 days in presence of 5 uM KU60019 by SRB assay; assay type: functional, cell-based; conditions: MCF7, 144 h
MCF7 [15] = test: Synergistic cytotoxicity against human MCF7 cells measured after 6 days in presence of 50 nM AZD0156 by SRB assay; assay type: functional, cell-based; conditions: MCF7, 144 h
SW480 [16] = test: Cytotoxicity against human SW480 cells measured after 9 days in presence of 5 uM 2(((24(2,4-dichlorobenzyl)oxy)naphthalen-1-yl)methyl)amino)ethan-1-ol by SRB assay; assay type: functional, cell-based; conditions: SW480, 216 h
SW480 [17] = test: Additive cytotoxicity against human SW480 cells measured after 9 days in presence of 5 uM KU55933 by SRB assay; assay type: functional, cell-based; conditions: SW480, 216 h
SW480 [18] = test: Synergistic cytotoxicity against human SW480 cells measured after 9 days in presence of 5 uM KU60019 by SRB assay; assay type: functional, cell-based; conditions: SW480, 216 h
SW480 [19] = test: Synergistic cytotoxicity against human SW480 cells measured after 9 days in presence of 50 nM AZD0156 by SRB assay; assay type: functional, cell-based; conditions: SW480, 216 h
SW480 [20] = test: Additive cytotoxicity against human SW480 cells assessed as combination index measured after 9 days in presence of 5 uM KU55933 by SRB assay; assay type: functional; conditions: time 9 day
SW480 [21] = test: Synergistic cytotoxicity against human SW480 cells assessed as combination index measured after 9 days in presence of 5 uM KU60019 by SRB assay; assay type: functional; conditions: time 9 day
SW480 [22] = test: Synergistic cytotoxicity against human SW480 cells assessed as combination index measured after 9 days in presence of 50 nM AZD0156 by SRB assay; assay type: functional; conditions: time 9 day
MCF7 [23] = test: Synergistic cytotoxicity against human MCF7 cells in presence of 10 uM 3-Chloro-4-methoxy-N-((4-(oxazolo[4,5-b]pyridin-2-yl)phenyl)carbamothioyl)benzamide measured after 2 days by SRB assay; assay type: functional, cell-based; conditions: MCF7, 48 h
MCF7 [24] = test: Synergistic cytotoxicity against human MCF7 cells assessed as combination index in presence of 10 uM 3-Chloro-4-methoxy-N-((4-(oxazolo[4,5-b]pyridin-2-yl)phenyl)carbamothioyl)benzamide measured after 2 days by SRB assay; assay type: functional; conditions: time 2 day
MCF7 [25] = test: Antagonistic cytotoxicity against human MCF7 cells in presence of 10 uM 3-Chloro-4-methoxy-N-((4-(oxazolo[4,5-b]pyridin-2-yl)phenyl)carbamothioyl)benzamide measured after 6 days by SRB assay; assay type: functional, cell-based; conditions: MCF7, 144 h
MCF7 [26] = test: Antagonistic cytotoxicity against human MCF7 cells assessed as combination index in presence of 10 uM 3-Chloro-4-methoxy-N-((4-(oxazolo[4,5-b]pyridin-2-yl)phenyl)carbamothioyl)benzamide measured after 6 days by SRB assay; assay type: functional; conditions: time 6 day
SW480 [27] = test: Antagonistic cytotoxicity against human SW480 cells measured after 9 days in presence of 3-Chloro-4-methoxy-N-((4-(oxazolo[4,5-b]pyridin-2-yl)phenyl)carbamothioyl)benzamide by SRB assay; assay type: functional, cell-based; conditions: time 9.0 day
NCI-H1299 [28] = test: Cytotoxicity against human NCI-H1299 cells measured in presence of 5 uM 2(((2-(2,4-dichlorobenzyl)oxy)naphthalen-1-yl)methyl)amino)ethan-1-ol after 2 days by SRB assay; assay type: functional, cell-based; conditions: NCI-H1299, 48 h
NCI-H1299 [29] = test: Additive cytotoxicity against human NCI-H1299 cells measured in presence of 5 uM KU55933 after 2 days by SRB assay; assay type: functional, cell-based; conditions: NCI-H1299, 48 h
NCI-H1299 [30] = test: Additive cytotoxicity against human NCI-H1299 cells assessed as combination index measured in presence of 5 uM KU55933 after 2 days by SRB assay; assay type: functional; conditions: time 2 day
NCI-H1299 [31] = test: Cytotoxicity against human NCI-H1299 cells measured in presence of 5 uM 2(((2-(2,4-dichlorobenzyl)oxy)naphthalen-1-yl)methyl)amino)ethan-1-ol after 6 days by SRB assay; assay type: functional, cell-based; conditions: NCI-H1299, 144 h
NCI-H1299 [32] = test: Additive cytotoxicity against human NCI-H1299 cells measured in presence of 5 uM KU55933 after 6 days by SRB assay; assay type: functional, cell-based; conditions: NCI-H1299, 144 h
NCI-H1299 [33] = test: Synergistic cytotoxicity against human NCI-H1299 cells measured in presence of 5 uM KU60019 after 6 days by SRB assay; assay type: functional, cell-based; conditions: NCI-H1299, 144 h
NCI-H1299 [34] = test: Synergistic cytotoxicity against human NCI-H1299 cells measured in presence of 50 nM AZD0156 after 6 days by SRB assay; assay type: functional, cell-based; conditions: NCI-H1299, 144 h
NCI-H1299 [35] = test: Additive cytotoxicity against human NCI-H1299 cells assessed as combination index measured in presence of 5 uM KU55933 after 6 days by SRB assay; assay type: functional; conditions: time 6 day
NCI-H1299 [36] = test: Synergistic cytotoxicity against human NCI-H1299 cells assessed as combination index measured in presence of 5 uM KU60019 after 6 days by SRB assay; assay type: functional; conditions: time 6 day
NCI-H1299 [37] = test: Synergistic cytotoxicity against human NCI-H1299 cells assessed as combination index measured in presence of 50 nM AZD0156 after 6 days by SRB assay; assay type: functional; conditions: time 6 day

Structure (SMILES)	pIC50 (MCF7 [1])	pIC50 (MCF7 [2])	pIC50 (MCF7 [3])	pIC50 (MCF7 [4])	CI (MCF7 [5])	CI (MCF7 [6])	CI (MCF7 [7])	pIC50 (SW480 [8])	pIC50 (SW480 [9])	CI (SW480 [10])	CI (SW480 [11])	CI (SW480 [12])	pIC50 (MCF7 [13])	pIC50 (MCF7 [14])	pIC50 (MCF7 [15])	pIC50 (SW480 [16])	pIC50 (SW480 [17])	pIC50 (SW480 [18])	pIC50 (SW480 [19])	CI (SW480 [20])	also measured
COc1cc([C@@H]2c3cc4c(cc3[C@@H](O[C@@H]3O[C@@H]5CO[C@@H](C)O[C@H]5[C@H](O)[C@H]3O)[C@H]3COC(=O)[C@H]23)OCO4)cc(OC)c1O [ETOPOSIDE]	4.34	4.23	4.06	4.20	2.8	2.7	4.2	5.46	5.42	2	1.4	1.7	6.18	7.22	6.96	7.15	7.10	> 8.00	> 8.00	0.95	CI (SW480 [21]): 0.22; CI (SW480 [22]): 0.17; pIC50 (MCF7 [23]): 4.63; CI (MCF7 [24]): 0.84; pIC50 (MCF7 [25]): 6.19; CI (MCF7 [26]): 1.16; Activity (SW480 [27]): Active; pIC50 (NCI-H1299 [28]): 4.95; pIC50 (NCI-H1299 [29]): 5.03; CI (NCI-H1299 [30]): 0.98; pIC50 (NCI-H1299 [31]): 6.15; pIC50 (NCI-H1299 [32]): 6.34; pIC50 (NCI-H1299 [33]): 6.64; pIC50 (NCI-H1299 [34]): 6.62; CI (NCI-H1299 [35]): 0.91; CI (NCI-H1299 [36]): 0.77; CI (NCI-H1299 [37]): 0.39
CCc1c2c(nc3ccc(OC(=O)N4CCC(N5CCCCC5)CC4)cc13)-c1cc3c(c(=O)n1C2)COC(=O)[C@]3(O)CC [IRINOTECAN]	4.37	4.42	4.42	4.41	2.1	1.4	1.6	5.14	4.81	3.2	1.6	3.4	5.77	5.70	6.80	7.15	6.22	> 6.92	> 6.92	1.02	CI (SW480 [21]): 0.25; CI (SW480 [22]): 0.22; pIC50 (MCF7 [23]): 4.58; CI (MCF7 [24]): 0.78; pIC50 (MCF7 [25]): 5.73; CI (MCF7 [26]): 1.16; Activity (SW480 [27]): Active; pIC50 (NCI-H1299 [28]): 4.95; pIC50 (NCI-H1299 [29]): 4.88; CI (NCI-H1299 [30]): 1.1; pIC50 (NCI-H1299 [31]): 5.74; pIC50 (NCI-H1299 [32]): 5.78; pIC50 (NCI-H1299 [33]): 6.57; pIC50 (NCI-H1299 [34]): 6.66; CI (NCI-H1299 [35]): 1.1; CI (NCI-H1299 [36]): 0.66; CI (NCI-H1299 [37]): 0.25
